Patent US11046647B2, “Activators of the unfolded protein response” (The Board of Trustees of the University of Illinois, priority 2018, dated 2021)

Tests used:
[1] = tested on: panel of cancer cell lines; assay: Alamar blue 24-hour IC50 against a panel of cancer cell lines; assay type: cell-based; settings: Homo sapiens, average
Procedure: FIG. 36. Discovery of SERK-F6 (also known as, C(−)-105, (−)-105, (R)-105, (−)-1, or (R)-1), a compound that kills ERα-positive cancer cells, a, Chemical structures of BHPI and racemic compound 1 (i.e. (±)-1), and their cytotoxic activity on T47D breast cancer cells after 24-hour incubations with concentrations as indicated in nM. Cells were stained with annexin V-FITC and PI dyes prior to analysis via flow cytometry. […] Cells were incubated with SERK-F6 or positive control, Raptinal, for 24 hours and then stained with annexin V-FITC and PI dyes and analyzed via flow cytometry. […] Cell viability was measured by Alamar blue fluorescence and set relative to a vehicle control and a quantitative dead control treated with Raptinal. […] Cell number was determined by MTS.
FIG. 40. […] Concentration was determined via LC/MS/MS analysis. […] Concentrations were determined via LC/MS/MS analysis. […]
Cell lines: ERα positive breast cancer: T47D, MCF-7 TYS (T47D Y537S) TDG (T47D D538G), BT-474; ERα negative MDA-MB-231 breast cancer cells; 6,000 cells/well were plated (96 well plate) in 100 μl of medium. […] After 2-4 hours fluorescence in the wells was read (λex: 555 nm, λem: 585 nm, Spectra Max M3 Plate reader). % relative death was determined by setting the reading for 10,000 nM raptinal-treated cells to 100% dead cells and the reading for vehicle-treated cells to 0% dead cells. […]

TYS-Luc cells = assay: Long-term cell culture experiment (treat 2 weeks, regrow 4 weeks), MTS, TYS-Luc; assay type: cell-based, human
Procedure: To simulate the effect of several weeks of treatment of a tumor in a mouse xenograft, long-term cell culture experiments were performed. TYS-Luc cells (T47DERαY537S-Luc cells; ERαY537S is the most lethal ERα mutation seen in metastatic breast cancer) were plated at 4,000 cells/well in 96 well plates. […] After 2 weeks (medium change every 2 days) cell number was determined using MTS and a standard curve of absorbance versus cell number for TYS-Luc cells. Notes: (i) Bars denote the BHPI and (−)-105 arms of the experiment. No drug is present during regrow. […] This allows any surviving cells to regrow. After 4 weeks the cells were assayed using MTS. […] (Note: Visual inspection of the wells confirmed that there were no cells in the well treated for 2 weeks with active (−)-105.) To test whether the cells that regrew after BHPI treatment were resistant to BHPI they were re-treated for another cycle (BHPI Retreat) and shown to retain sensitivity to BHPI killing. (n=8 biological replicates ±SEM.

[2] = tested on: protein synthesis in Caov-3 cells; assay: Protein synthesis inhibition (35S-methionine incorporation), Caov-3; assay type: cell-based, human; settings: 1,000 nM
Procedure: ERα positive Caov-3, human ovarian cancer cells, were treated for the indicated times with 1,000 nM BHPI or 1,000 nM (−)-105. Cells were briefly labeled with ^35S-methionine. Incorporation of labeled ^35S-methionine into protein was determined by trichloroacetic acid precipitation and trapping of precipitated protein, but not free amino acids, in small Whatman hardened ashless filters. After solubilizing the protein in the filters with base and neutralization with acid, the samples were counted in a liquid scintillation counter. Shown is the average (n≥3) percent inhibition of protein synthesis compared to the 0-time sample. The near quantitative inhibition of protein synthesis by (−)-105 is consistent with (−)-105 inducing lethal hyperactivation of the PERK arm of the UPR. Even non-growing cells are constantly degrading protein and making new proteins. Cells in which nearly all (>90%) of protein synthesis is inhibited cannot grow and will ultimately die.

MCF-7 tumors = assay: MCF-7 orthotopic tumor model; assay type: in vivo, mouse
Procedure: FIG. 39. SERK-F6 eradicates wild-type ERα tumors via hyperactivation of aUPR. a, MCF-7 orthotopic tumors were established in Nu/J ovariectomized mice supplemented with a 60 day E2 pellet (0.36 mg) and grown to ˜400 mm^3 (28 days to establish), randomized, then treated with vehicle daily (n=3), vehicle weekly (n=3), fulv. weekly (5 mg/mouse, s.c., n=6), SERK-F6 daily (10 or 40 mg/kg p.o.). Vehicle arms were averaged. p values: *: p≤0.05, **: p≤0.01, ***: p≤0.001, ****: p≤0.0001. Tumor images were taken at the end of the study (day 21) and are representative of all tumors (n=6). b-e, MCF-7 cells were orthotopically bi-laterally grafted and tumors were grown until total tumor burden was ˜400 mm^3 prior to daily treatment with vehicle or SERK-F6 (40 mg/kg p.o.). Mice (n=5 per arm) were sacrificed after 3 days (b,c) and 7 days (d,e) and tumors harvested. […] Vinculin (Vin) was used as a loading control. […] Error bars represent S.E.M.
To probe the efficacy of SERK-F6 for killing ERα positive tumors, large MCF-7 tumors were grown and then intervened with therapy. […] The mice were then sacrificed prior to complete tumor eradication.

## O=C1Nc2c(C(F)(F)F)cccc2C1(c1ccc(O)cc1)c1ccc(OC(F)(F)F)cc1 (single isomer, unassigned; (-)) [(−)-105, 3-(4-hydroxyphenyl)-3-(4-(trifluoromethoxy)phenyl)-7-(trifluoromethyl)indolin-2-one]
[1]
  IC50: 42 nM
TYS-Luc cells; 1 μM for 2 weeks, then 4 weeks without drug
  regrowth of cells after drug removal: no regrowth
TYS-Luc cells; 1 μM, 2 weeks treatment
  TYS-Luc cells killed: 100%
[2]
  inhibition of the synthesis of new proteins: near-quantitative
MCF-7 tumors; 40 mg/kg p.o., 3 and 7 days
  UPR markers in tumors (western blot): increases in P-PERK and P-eiF2alpha levels
MCF-7 tumors; daily treatment
  murine weight during the study: did not lead to any change in murine weight
MCF-7 tumors; large established MCF-7 tumors, SERK-F6 10 or 40 mg/kg p.o. daily, fulv. 5 mg/mouse s.c. weekly
  tumor response: dramatic tumor regressions
